Measured values: ChEMBL document CHEMBL5226303, “GPR120/FFAR4 Pharmacology: Focus on Agonists in Type 2 Diabetes Mellitus Drug Discovery” (J Med Chem, 2021)
Values belong to the compound of their own block, whether it stands above or below them.

How the values were obtained:
DU-145 = test: Antiproliferative activity against LPA-induced human DU-145 cells; assay type: functional, cell-based
[1] = Agonist activity at FFA receptor (unknown origin); design: species or system Homo sapiens
[2] = target: T1, Free fatty acid receptor 4 (Homo sapiens, UniProt Q5NUL3); test: Agonist activity at human GPR120 expressed in HEK293 cells by beta-arrestin assay; assay type: cell-based
T1 sequence (Q5NUL3 whole entry): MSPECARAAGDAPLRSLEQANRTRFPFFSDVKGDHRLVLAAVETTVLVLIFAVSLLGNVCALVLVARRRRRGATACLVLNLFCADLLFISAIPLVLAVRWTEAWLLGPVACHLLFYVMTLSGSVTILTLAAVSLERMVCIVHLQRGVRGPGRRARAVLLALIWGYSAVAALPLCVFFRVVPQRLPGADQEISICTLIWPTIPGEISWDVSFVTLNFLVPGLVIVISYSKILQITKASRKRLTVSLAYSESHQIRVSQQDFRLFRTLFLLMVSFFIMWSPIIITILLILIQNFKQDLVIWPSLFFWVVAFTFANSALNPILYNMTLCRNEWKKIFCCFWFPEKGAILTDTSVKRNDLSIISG

[3] = target: T1, Free fatty acid receptor 4; test: Agonist activity at human GPR120 expressed in HEK293 cells assessed as calcium accumulation; assay type: cell-based
[4] = target: T1, Free fatty acid receptor 4; test: Agonist activity at human GPR120 expressed in CHO-K1 cells by beta-arrestin assay; assay type: cell-based

- IC50 (DU-145): 5700 nM
Structure (SMILES): CC(C)=CCC/C(C)=C/CC/C(C)=C/Cc1c(O)cc(C)c(C(=O)O)c1O [GRIFOLIC ACID]

- pEC50 [1]: 5.16
Structure (SMILES): CCCCC/C=C\C/C=C\CCCCCCCC(=O)O [LINOLEIC ACID]

- IC50 (DU-145): 73 nM
Structure (SMILES): CC/C=C\C/C=C\C/C=C\C/C=C\C/C=C\C/C=C\CCC(=O)O [DOCONEXENT]

- EC50 [2]: 125 nM
- EC50 [3]: 165 nM
Structure (SMILES): OCCCc1c(F)cc(OCc2c(-c3ccc(Cl)cc3)csc2C(F)(F)F)cc1F

- EC50 [4]: 5.2 nM
Structure (SMILES): C#Cc1cc(Oc2cccnc2)cc(N2Cc3ccccc3S2(=O)=O)c1
